Where no end group is shown, it is not given here.
Biological target: T1, RNase A (Bos taurus, UniProt P61823)
T1 sequence (P61823 27-150): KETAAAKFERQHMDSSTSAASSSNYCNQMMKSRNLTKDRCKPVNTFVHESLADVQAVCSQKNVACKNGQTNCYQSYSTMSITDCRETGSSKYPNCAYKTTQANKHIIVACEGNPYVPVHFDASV
Assay: RNase activity test kit, modified Taq-man RNA probe analysis (ab273299)
Type: biochemical
Set-up: purchased Abcam ab273299
Details: for inhibition at 1 µM: inhibitor 1 μM, after 60 minutes, positive control (no inhibitor) = 100%, read-out: relative inhibition level / reduction of RNase A activity; for RNase A activity reduced by: summary paragraph, peptide 1 μM, versus non-inhibitory condition (100%); for IC50: synthetic peptides, RNA probe kit, linear regression
Experimental: The activity of RNase A, which degrades RNA, was evaluated using specially designed RNA probes. This RNase A analysis was performed using a commercial RNase activity test kit based on a modified Taq-man probe analysis (ab273299) from Abcam (Cambridge, UK). To compare inhibitory activity, three synthetic peptides (peptide-1, peptide-2, peptide-3) and three expressed Fv-antibodies (Fv-1, Fv-2, and Fv-3) were compared using two types of commercially available RNase inhibitors from Biofact™ (Daejeon, South Korea) and two types of RNaseOUT™ from Thermofisher (USA). The probes for the RNase inhibition analysis contained RNA probes with fluorescent dyes and quenching materials at each end of the RNA sequence. […] To estimate the RNase A inhibitory activity by the three synthesized peptides, each peptide was treated at a concentration of 1 μM using the analysis kit, and RNase activity was measured. The positive control was prepared to have an RNase reaction without an inhibitor, and the negative control was prepared to have an RNase reaction without the RNA probe. […] The RNase A inhibitory activity of the three synthesized peptides was analyzed after treating each peptide at a concentration range of 100 μM to 1 μM in the assay kit. […] The RNase A inhibitory activity of the three expressed Fv-antibodies was analyzed after treating each peptide at a concentration range of 100 μM to 1 μM in the analysis kit.
The activity of RNase A, which degrades RNA, was evaluated using specially designed RNA probes. This RNase A analysis was performed using a commercial RNase activity test kit based on a modified Taq-man probe analysis (ab273299) from Abcam (Cambridge, UK). For the comparison of inhibitory activity, three synthetic peptides (Peptide-1, Peptide-2, Peptide-3) and three expressed Fv-antibodies (Fv-1, Fv-2, and Fv-3) were compared using two types of commercially available RNase inhibitors from Biofact™ (Daejeon, South Korea) and two types of RNaseOUT™ from Thermofisher (USA). The probes for the RNase inhibition analysis contain RNA probes with fluorescent dyes and fluorescent quenchers at each end of the RNA nucleotide sequence.
To estimate the RNase A inhibitory activity of the three synthesized peptides, each peptide was treated at a concentration of 1 μM using an assay kit, and the RNase activity was evaluated. The positive control was prepared to have an RNase reaction without the inhibitor, while the negative control was prepared to have an RNase reaction without the RNA probe.
The RNase A inhibitory activity of the three synthesized peptides was analyzed after treating each peptide at a concentration range of 100 μM to 1 μM with the RNase A from the assay kit.

Sequence	inhibition at 1 µM [%]	RNase A activity reduced by [%]	IC50 [µM]
DGTAKKSRKDD [Peptide-3]	50.3	50.3	0.4
YGPVGRVKRDD [Peptide-2]	53.2	53.2	3.6
CGPDSDVMTDF [Peptide-1]	54.4	54.4	8.1

— patent US20260217863A1, “ANTIBODY OR PEPTIDE BINDING SPECIFICALLY TO RNASE A, IMMUNOASSAY DEVICE AND METHOD FOR DETECTING RNASE A, AND METHOD FOR COLLECTING RNASE A” (UIF (University Industry Foundation), Yonsei University, priority 2022, published 2026)
